The test has as its system Moraxella catarrhalis. Put plainly: Broth microdilution MIC testing (CLSI). As to conditions: for MIC: read-out: MIC (lowest concentration of drug that inhibited visible growth). The test is classed as cell-based. On the procedure: In this study, to evaluate the spectrum of activity, cannabidiol (CBD) was profiled against Moraxella. Testing was conducted following guidelines recommended by the Clinical and Laboratory Standards Institute (CLSI, 1-4), using vancomycin, meropenem, levofloxacin, and gentamicin as comparators for testing aerobic bacteria.
Test agents were supplied by Micromyx. Stock solutions of all compounds were prepared on the first day of testing at 101× the highest test concentration using solvents recommended by CLSI. CBD was prepared fresh on each of testing.
Prior to testing, Moraxella were streaked from frozen vials onto Trypticase Soy Agar (TSA) with 5% sheep blood (Becton Dickinson [BD]; Sparks, Md.; Lot No. 9192895), and incubated at 35° C. overnight.
Cation-adjusted Mueller-Hinton broth (CAMHB; BD; Lot No. 8190586) was used for MIC testing.
MIC values were determined using a broth microdilution procedure described by CLSI (1-4). Automated liquid handlers (Multidrop 384, Labsystems, Helsinki, Finland; Biomek 2000 and Biomek FX, Beckman Coulter, Fullerton, Calif.) were used to conduct serial dilutions and liquid transfers.
To prepare the drug mother plates, which would provide the serial drug dilutions for the replicate daughter plates, the wells of columns 2 through 12 of standard 96-well microdilution plates (Costar 3795) were filled with 150 μl of the designated diluent for each row of drug. The test article and comparator compounds (300 μl at 101× the highest concentration to be tested) were dispensed into the appropriate wells in column 1. The Biomek 2000 was then used to make 2-fold serial dilutions in the mother plates from column 1 through column 11. The wells of column 12 contained no drug and served as the organism growth control wells for the assay.
The daughter plates were loaded with 190 μL per well of the appropriate test medium for the tested organism using the Multidrop 384. The daughter plates were completed on the Biomek FX instrument which transferred 2 μL of drug solution from each well of a mother plate to the corresponding well of each daughter plate in a single step.
A standardized inoculum of each test organism was prepared per CLSI methods (1-4). The inoculum for each organism was dispensed into sterile reservoirs divided by length (Beckman Coulter), and the Biomek 2000 was used to inoculate the plates. Daughter plates were placed on the Biomek 2000 work surface in reverse orientation so that inoculation took place from low to high drug concentration. Plates were inoculated with 10 μL of the inoculum resulting in a final cell density of approximately 5×10^5 CFU/mL per well.
The plates for testing of Moraxella were stacked 3 to 4 high, covered with a sterile lid, and incubated at 35° C. for the time periods specified in CLSI (1-4). Plates were incubated for approximately 16 to 20 hr. Following incubation, the microplates were removed from the incubator and viewed from the bottom using a plate viewer. […] The MIC was read and recorded as the lowest concentration of drug that inhibited visible growth of the organism.

Where [1] appears, read: Moraxella catarrhalis isolate MMX 3782, CAMHB, 35° C., approximately 16 to 20 hr.

≈ marks a conversion by molar mass, not a printed value. Like-named read-outs stand apart in the source and are kept apart here.

`C[C@@H](O)[C@H]1C(=O)N2C(C(=O)O)=C(S[C@@H]3CN[C@H](C(=O)N(C)C)C3)[C@H](C)[C@H]12` [MEM, meropenem]: the MIC under setting [1] was ≤ 0.03 µg/mL.

As for `C=C(C)C1CCC(C)=CC1c1c(O)cc(CCCCC)cc1O` (centres unmarked) [CBD, 2-[3-methyl-6-(1-methylethenyl)-2-cyclohexen-1-yl]-5-pentyl-1,3-benzenediol], the MIC under setting [1] was 1 µg/mL (≈ 3.18 µM).

Consider `C[C@H]1COc2c(N3CCN(C)CC3)c(F)cc3c(=O)c(C(=O)O)cn1c23` [LVX, levofloxacin], for which, under setting [1], the MIC amounted to 0.03 µg/mL (≈ 0.083 µM).

Regarding gentamicin, under setting [1], the “MIC (lowest concentration of drug that inhibited visible growth)” value worked out at 0.25 µg/mL.

Regarding `CN[C@H](CC(C)C)C(=O)N[C@H]1C(=O)N[C@@H](CC(N)=O)C(=O)N[C@H]2C(=O)N[C@H]3C(=O)N[C@H](C(=O)N[C@H](C(=O)O)c4cc(O)cc(O)c4-c4cc3ccc4O)[C@H](O)c3ccc(c(Cl)c3)Oc3cc2cc(c3O[C@@H]2O[C@H](CO)[C@@H](O)[C@H](O)[C@H]2O[C@H]2C[C@](C)(N)[C@H](O)[C@H](C)O2)Oc2ccc(cc2Cl)[C@H]1O` [VAN, vancomycin], the MIC (Moraxella catarrhalis) turned out to be 32 µg/mL (≈ 22.1 µM).

These data come from patent US20230013925A1, “Moraxella Treatment Using Cannabinoids” (BOTANIX PHARMACEUTICALLS LIMITED, priority 2019, published 2023).
